From patent publication US10045972B2, “Hydroxypyridone derivatives, pharmaceutical compositions thereof, and their therapeutic use for treating inflammatory, neurodegenerative, or immune-mediated diseases” (BioTheryX, Inc., priority 2014, dated 2018) come the findings set out here.

Each structure is given as a SMILES string. Entries after “also recorded” stand apart in the source; their conditions may differ.

For data set [1], the system named is MO3-13 cells. In words: Protection of differentiated MO3-13 cells against TNF-α toxicity (Kinetic Apoptosis Kit, live cell fluorescence microscopy). The conditions noted are these: 1 μM ciclopirox with human TNF-α protein 30 ng/mL; images after 1, 15 and 72 hrs, FIG. 3. In kind it is cell-based. On the procedure:
The protective effects of ciclopirox on MO3-13 cells against TNF-α toxicity was also determined. MO3-13 cells were grown in 6 well dishes and allowed to adhere overnight. Cells were grown to 70% confluence and then differentiated into oligodendrocyte-like cells by removal of FBS from DMEM medium for 48 hrs. Cells were treated with vehicle (no treatment); human TNF-α protein (30 ng/mL); 1 μM ciclopirox; and a combination of 1 μM ciclopirox and human TNF-α protein (30 ng/mL). Cells were treated with Abcam's Kinetic Apoptosis Kit (Microscopy) prior to live cell fluorescence microscopy imaging using an inverted Zeiss epi-fluorescent microscope. Merged images of phase contrast, green (pSIVA-IANBD) and red (PI) fluorescence were captured after 1 hr, 15 and 72 hrs in cell culture.

The subject of data set [2] is human oligodendrocytes (MO3-13). In words: TNF-α toxicity on MO3-13 cells and protection (Trypan blue cell counts). It is filed as cell-based. The conditions noted are these: cells exposed to LD50 human TNF-α protein, FIG. 2. On the procedure: MO3-13 cells were grown in 6 well dishes (100,000 cells per dish) and allowed to adhere overnight. Cells were treated with increasing amounts of human recombinant TNF-α protein (Abcam Ab9642). Cells either treated with increasing amounts of TNF-α protein or with vehicle (PBS) were allowed to grow for additional 24 hrs, after which MO3-13 cells were trypsinized and counted using Trypan blue and a Nebauer hemocytometer. Mean cell counts were plotted graphically against TNF-α concentrations. The LD50 of human TNF-α was determined to be 30 ng/mL on MO3-13 cells. The protective effects of compound A1 on MO3-13 cells that were exposed to LD50 human TNF-α protein were then determined and the results are shown in FIG. 2.

The test system of data set [3] is TNF-α secretion from human primary glioblastoma cells (U87). In words: Reduction of TNF-α secretion from U87 cells (slot blot of conditioned media). It is filed as cell-based. The conditions noted are these: compound at 10 μM, 48 hrs, FIG. 1. On the procedure: TNF-α secretion was measured using U87 cell line. Cells were distributed into 6 well dishes and allowed to adhere overnight. When cells were confluent, they were treated with 6-cyclohexyl-1-hydroxy-4-methyl-1H-pyridine-2-thione A1 at 10 μM in each dish, wherein compound A1 was solubilized in neat DMEM. Cells were exposed to the compound for 48 hrs. Conditioned media was collected and assayed for TNF-α using mouse monoclonal to TNF-α (Abcam 52B83, Cambridge, Mass.). Conditioned media (100 μL) was applied to each slot. The nitrocellulose filter membrane was blocked with ECL advanced block (2% in Tris buffered saline with Tween-20 (0.05%)) for 1 hr with gentle shaking at room temperature. Primary mouse anti-TNF-α (Abcam 52B83) was diluted 1,000× in the blocking solution. Primary antibodies were applied to blots and incubated overnight at 4° C. with gentle shaking. Blots were developed using enhanced ECL (GE Healthcare) method. Images of bound antibodies were captured using Image Lab software driving a Bio-Rad ChemiDoc XRS+ image capture system.

Data set [4] relates to MO3-13 cells. In words: Protection of MO3-13 cells from cuprizone toxicity (phase contrast). In kind it is cell-based, human. The conditions noted are these: compound 5 μM, cuprizone 50 μM, 24 hrs, FIG. 5. The procedure: The protective effects of compound A1 on MO3-13 cells from cuprizone toxicity was then determined. […] Cuprizone at a final concentration of 50 μM was solubilized in 100% ethanol was added to selected dishes with and without compound A1 (5 μM) in DMSO.

Data set [5] deals with myelin basic protein (MBP) in MO3-13 cells. Put plainly: Induction of myelin basic protein (MBP) production in MO3-13 cells (slot blot, anti-MBP). It is filed as cell-based, human. On the procedure:
Dilutions (0.1 mg/mL) of MO3-13 whole cell extracts were prepared and the proteins (5 μg) from the dilutions were blotted onto nitrocellulose membrane using a slot blotter. The non-protein sites on the blot were blocked with 2% ECL block in PBS-Tween20. Primary […] was diluted in block solution at 300×. The primary antibody was incubated overnight at 4° C. with gentle shaking. The following day the blot was developed using enhanced ECL (GE Healthcare) method. Image of bound antibody were captured using Image Lab software driving a Bio-Rad ChemiDoc XRS+ image capture system.

Data set [6] has as its system primary human oligodendrocytes. In words: Protection from cuprizone toxicity, primary human oligodendrocytes, MITOTRACKER and immunocytochemistry. In kind it is cell-based. The conditions noted are these: MITOTRACKER (red), green channel, nuclei (blue), FIGS. 8 and 9. On the procedure:
MITOTRACKER® (100 nM) was incubated with the live cells at 37° C. for 30 min. MITOTRACKER® labeling of mitochondria was assessed using a Zeiss inverted microscope. Following MITOTRACKER® treatment, cells were processed for immunocytochemistry. Cells grown on human oligodendrocyte extracellular matrix coated cover slips (Celprogen) were fixed with fixing solution containing 0.1% gluteraldehyde, 2% paraformaldehyde, 80 mM Pipes, 5 mM EGTA, pH 8.0, 1 mM MgCl2, and 0.5% Triton-X100. The cells were fixed for 7 min at 37° C. The cells on cover slips were washed and then blocked with 2% bovine serum albumin (BSA) for 1 hr. Primary antibodies were diluted in 2% BSA and incubated on the cover glass for 1 hr in a humid chamber. Following incubation, cover slips were washed and then incubated for 1 hr with species-specific secondary antibodies conjugated with fluorescent label or with biotin. After washing, slides were incubated with streptavidin conjugated with fluorescein fluorescent labels for 40 min. Cover slips were washed again and mounted with DABCO mountant. Fluorescently labeled cells were visualized with a Zeiss epi-fluorescent microscope. Data collected was for MITOTRACKER® (red channel) and MBP (green channel). Nuclei are labeled with DAPI (blue channel).

Data set [7] deals with primary human oligodendrocytes. Put plainly: Protection from cuprizone toxicity, primary human oligodendrocytes, live cell images. To be noted: 24 hrs, FIG. 7. The procedure:
Cells were weaned off with fetal bovine serum containing differentiation medium (Celprogen) up to 25 days in culture. The cells were exposed to either no treatment (Vehicles=ethanol and DMSO); compound A1 ranging in dosage of 2, 5 and 10 μM; cuprizone (50 μM) (Sigma Aldrich) or a combination of compound A1 and cuprizone (50 μM). Cells were treated for 24 hrs, after which images were captured of live cells using an inverted Zeiss microscope.

For data set [8], the system named is primary mouse oligodendrocytes. Put plainly: Protection from cuprizone toxicity, primary mouse oligodendrocytes, MITOTRACKER and immunocytochemistry. It is filed as cell-based. The conditions noted are these: MITOTRACKER (red) and beta-catenin (green), FIG. 6. On the procedure:
Stock MITOTRACKER® (Molecular Probes) was diluted with DMSO to a final concentration of 1 mM. MITOTRACKER® (100 nM) was incubated with the live cells at 37° C. for 30 min. MITOTRACKER® labeling of mitochondria was assessed using a Zeiss inverted microscope. Following MITOTRACKER® treatment, cells were processed for immunocytochemistry. Cells grown on mouse oligodendrocyte extracellular matrix coated cover slips (Celprogen) were fixed with fixing solution containing 0.1% gluteraldehyde, 2% paraformaldehyde, 80 mM Pipes, 5 mM EGTA, pH 8.0, 1 mM MgCl2, and 0.5% Triton-X100. The cells were fixed for 7 min at 37° C. The cells on cover slips were washed and then blocked with 2% bovine serum albumin (BSA) for 1 hr. Primary antibodies were diluted in 2% BSA and incubated on the cover glass for 1 hr in a humid chamber. Following incubation, cover slips were washed and then incubated for 1 hr with species-specific secondary antibodies conjugated with fluorescent label or with biotin. After washing, slides were incubated with streptavidin conjugated with fluorescein fluorescent labels for 40 min. Cover slips were washed again and mounted with DABCO mountant. Fluorescently labeled cells were visualized with a Zeiss epi-fluorescent microscope. Data collected was for MITOTRACKER® (red channel) and beta-catenin (green channel).

`Cc1cc(C2CCCCC2)n(O)c(=O)c1` [ciclopirox]: in the data set on MO3-13 cells [1], the “protection of MO3-13 cells against TNF-α toxicity” value is given as “protection; also recorded: protective up to 72 hrs”.
In the case of `Cc1cc(C2CCCCC2)n(O)c(=S)c1` [compound A1, 6-cyclohexyl-1-hydroxy-4-methyl-1H-pyridine-2-thione], in data set [2], the “protection of MO3-13 cells against TNF-α toxicity” value is “protection”. Also, in data set [3], the “reduction of TNF-α secretion” value is given as “reduction of TNF-α secretion”. Moreover, in the data set on MO3-13 cells [4], the “protection of MO3-13 cells against cuprizone toxicity” value was “protection”. Further, in data set [5] (MO3-13 cells treated with Cpz and compound, p<0.001, FIG. 10), the “MBP bound by anti-MBP (induction of MBP production)” value was “induction of myelin basic protein (MBP) production; also recorded: significantly higher”. Also, the “MBP bound by anti-MBP” value in data set [5] (MO3-13 cells treated with compound alone, p<0.001, FIG. 10) was “significantly higher”. For the same molecule, the “protection of primary human oligodendrocytes against cuprizone toxicity” value was “protection” in data set [6]; “protection; also recorded: appears to be protective at various dosings” in data set [7] (compound 2, 5 and 10 μM with cuprizone 50 μM, live cell images). Moreover, the “protection of primary mouse oligodendrocytes against cuprizone toxicity” value in data set [8] is given as “protection”.
As for `O=C(NN=C1CCCCC1)C(=O)NN=C1CCCCC1` [cuprizone, reference compound], in data set [5] (MO3-13 cells treated with Cpz alone, FIG. 10), the “anti-MBP antibody binding compared with non-treated (NT) cells” value is on record as “reduced anti-MBP antibody binding”. Also, the “toxicity of cuprizone to primary human oligodendrocytes” value in data set [7] (cuprizone 50 μM alone) is on record as “toxic”.
